Test results reported in US20260165323A1, “USE OF STROBILURIN TYPE COMPOUNDS FOR COMBATING PHYTOPATHOGENIC FUNGI CONTAINING AN AMINO ACID SUBSTITUTION F129L IN THE MITOCHONDRIAL CYTOCHROME B PROTEIN CONFERRING RESISTANCE TO QO […]” (priority 2022, published 2026).

How the values were obtained:
Format in all cases: in vivo
Puccinia recondita [1] = assay: Use Example 3: curative control of brown rust on wheat (PUCCRT K4); conditions: % diseased leaf area
Method in brief: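 Wheat seedlings inoculated with Puccinia recondita spores, held 24 h at 95–99% RH, 20–24° C in dark, then 3 days in greenhouse before spraying to run-off (curative). Compound in acetone/DMSO–Wettol–water. After 5–7 further days at 20–24° C, 65–70% RH, % diseased leaf area scored visually.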

[2] = tested on: Phakopsora pachyrhizi containing the amino acid substitution F129L in the mitochondrial cytochrome b protein; assay: Use Example 1: protective control of soybean rust on soybeans (PHAKPA P2); conditions: inoculated 2 days after spraying, % diseased leaf area
Method in brief: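 Protective test: plants were inoculated with the F129L cytochrome b rust strain 2 days after spraying to run-off, then held 24 h humid (~95% RH, 20-24° C) and up to 14 days at 23-27° C, 60-80% RH. Readout was visually assessed percent diseased leaf area.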

Puccinia recondita [3] = assay: Use Example 4: preventative control of brown rust on wheat (PUCCRT P7); conditions: inoculated seven days after spraying, % diseased leaf area
Method in brief: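 Preventative test: Puccinia recondita spores dusted onto wheat seedlings seven days after spraying their first two leaves to run-off with the formulated compound. After 24 h humid dark incubation at 20–24 °C and 9–11 days of greenhouse growth at 65–70% RH, infection rated visually as % diseased leaf area.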

[4] = tested on: Phakopsora pachyrhizi containing the amino acid substitution F129L in the mitochondrial cytochrome b protein; assay: Use Example 2: protective control of soybean rust on soybeans (PHAKPA P6); conditions: inoculated six days after spraying, % diseased leaf area
Method in brief: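 Disease was rated visually as % diseased leaf area up to 14 days after inoculation (23–27°C, 60–80% RH). Inoculum was P. pachyrhizi carrying cytochrome b F129L, followed by 24 h in a humid chamber (~95% RH). Inoculation came six days after protective spraying of seedlings with compound in acetone/DMSO–Wettol–water.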

| SMILES | % PUCCRT Disease level K4 at 4 ppm (Puccinia recondita [1]) | % PUCCRT Disease level K4 at 16 ppm (Puccinia recondita [1]) | % PHAKPA (F129L) Disease level P2 at 4 ppm [2] | % PHAKPA (F129L) Disease level P2 at 16 ppm [2] | % PUCCRT Disease level P7 at 4 ppm (Puccinia recondita [3]) | % PUCCRT Disease level P7 at 16 ppm (Puccinia recondita [3]) | % PHAKPA (F129L) Disease level P6 at 4 ppm [4] | % PHAKPA (F129L) Disease level P6 at 16 ppm [4] |
| --- | --- | --- | --- | --- | --- | --- | --- | --- |
| CO/C=C(/C(=O)OC)c1cccc(Cl)c1CO/N=C(\COC)c1cccc(F)c1F [compound 87] | 67% | 10% | 5% | 0% | 28% | 5% | 2% | 0% |
| CNC(=O)/C(=N/OC)c1cccc(Cl)c1CO/N=C(\COC)c1ccc(F)c(F)c1 [compound 97] | 9% | 3% | 3% | 0% | 23% | 4% | 17% | 1% |
| CCOC/C(=N\OCc1c(Cl)cccc1/C(=N\OC)C(=O)OC)c1ccc(Cl)cc1 [compound 44] | 75% | 73% | 95% | 55% | 77% | 37% | 80% | 68% |
| CNC(=O)/C(=N/OC)c1cccc(Cl)c1CO/N=C(\COC)c1cc(F)cc(F)c1 [compound 86] | 52% | 4% | 17% | 0% | 19% | 4% | 10% | 0% |
| CO/C=C(/C(=O)OC)c1cccc(Cl)c1CO/N=C(\COC)c1cccc(OC)c1 [compound 121] | 5% | 1% | 4% | 0% | 32% | 4% | 6% | 0% |
| CO/C=C(/C(=O)OC)c1cccc(Cl)c1CO/N=C(/C#Cc1ccc(F)cc1)COC [compound 7, Methyl (E)-2-[3-chloro-2-[[(Z)-[3-(4-fluorophenyl)-1-(methoxymethyl)prop-2-ynylidene]amino]oxymethyl]phenyl]-3-methoxy-prop-2-enoate] | 70% | 50% | 2% | 0% | 35% | 4% | 11% | 0% |
| CO/C=C(/C(=O)OC)c1cccc(Cl)c1CO/N=C(\COC)c1ccc(Cl)cc1 [compound 35] | 73% | 7% | 16% | 1% | 14% | 0% | 30% | 4% |
| CNC(=O)/C(=N/OC)c1cccc(Cl)c1CO/N=C(\COC)c1cc(Cl)ccc1F [compound 107] | 80% | 9% | 29% | 3% | 41% | 7% | 19% | 3% |
| CO/C=C(/C(=O)OC)c1cccc(Cl)c1CO/N=C(\COC)c1ccc(Cl)c(F)c1 [compound 110] | 70% | 4% | 1% | 0% | 41% | 3% | 15% | 0% |
| CCOCC(=NOCc1c(Cl)cccc1C(=COC)C(=O)OC)c1ccc(F)cc1 [compound 23] | 67% | 23% | 9% | 0% | 37% | 6% | 25% | 6% |
| CO/C=C(/C(=O)OC)c1cccc(Cl)c1CO/N=C(\COC)c1ccc(F)cc1Cl [compound 93] | 83% | 19% | 13% | 1% | 53% | 16% | 43% | 15% |
| CO/C=C(/C(=O)OC)c1cccc(Cl)c1CO/N=C(\COC)c1ccccc1 [compound 11, Methyl-(E)-2-[3-chloro-2-[[(Z)-(2-methoxy-1-phenyl-ethylidene)amino]oxymethyl]phenyl]-3-methoxy-prop-2-enoate] | 7% | 0% | 2% | 0% | 25% | 1% | 11% | 0% |
| CCOC/C(=N\OCc1c(Cl)cccc1/C(=C\OC)C(=O)OC)c1c(F)cc(F)cc1F [compound 30] | 77% | 35% | 7% | 0% | 80% | 37% | 25% | 5% |
| COC/C(=N\OCc1c(Cl)cccc1/C(=N\OC)C(=O)OC)c1c(F)cc(F)cc1F [compound 28] | 75% | 77% | 67% | 13% | 57% | 4% | 85% | 27% |
| CCOC/C(=N\OCc1c(Cl)cccc1/C(=N\OC)C(=O)NC)c1cccc(Cl)c1 [compound 40] | 73% | 40% | 15% | 1% | 30% | 4% | 33% | 4% |
| CNC(=O)/C(=N/OC)c1cccc(Cl)c1CO/N=C(\COC)c1cccc(F)c1 [compound 41] | 72% | 12% | 3% | 0% | 23% | 4% | 14% | 1% |
